Data: US20250325687A1, “CONJUGATE COMPRISING TOLL-LIKE RECEPTOR AGONIST” (MABSOFT THERAPEUTICS (SHANGHAI) CO., LTD., priority 2022, published 2025)
Read-outs that look alike come from different tables or passages of the source.

How the values were obtained:
Assay type in all cases: cell-based
[1] = target: T1, hTLR7 (human Toll-like receptor 7) (Homo sapiens, UniProt Q9NYK1); experiment: hTLR7 cell assay (HEK-Blue hTLR7 reporter cells); details: 24 hours, OD 650 nm
T1 construct: host or cells: HEK-Blue hTLR7 (HEK293-derived reporter cells)
T1 sequence (Q9NYK1 27-1049): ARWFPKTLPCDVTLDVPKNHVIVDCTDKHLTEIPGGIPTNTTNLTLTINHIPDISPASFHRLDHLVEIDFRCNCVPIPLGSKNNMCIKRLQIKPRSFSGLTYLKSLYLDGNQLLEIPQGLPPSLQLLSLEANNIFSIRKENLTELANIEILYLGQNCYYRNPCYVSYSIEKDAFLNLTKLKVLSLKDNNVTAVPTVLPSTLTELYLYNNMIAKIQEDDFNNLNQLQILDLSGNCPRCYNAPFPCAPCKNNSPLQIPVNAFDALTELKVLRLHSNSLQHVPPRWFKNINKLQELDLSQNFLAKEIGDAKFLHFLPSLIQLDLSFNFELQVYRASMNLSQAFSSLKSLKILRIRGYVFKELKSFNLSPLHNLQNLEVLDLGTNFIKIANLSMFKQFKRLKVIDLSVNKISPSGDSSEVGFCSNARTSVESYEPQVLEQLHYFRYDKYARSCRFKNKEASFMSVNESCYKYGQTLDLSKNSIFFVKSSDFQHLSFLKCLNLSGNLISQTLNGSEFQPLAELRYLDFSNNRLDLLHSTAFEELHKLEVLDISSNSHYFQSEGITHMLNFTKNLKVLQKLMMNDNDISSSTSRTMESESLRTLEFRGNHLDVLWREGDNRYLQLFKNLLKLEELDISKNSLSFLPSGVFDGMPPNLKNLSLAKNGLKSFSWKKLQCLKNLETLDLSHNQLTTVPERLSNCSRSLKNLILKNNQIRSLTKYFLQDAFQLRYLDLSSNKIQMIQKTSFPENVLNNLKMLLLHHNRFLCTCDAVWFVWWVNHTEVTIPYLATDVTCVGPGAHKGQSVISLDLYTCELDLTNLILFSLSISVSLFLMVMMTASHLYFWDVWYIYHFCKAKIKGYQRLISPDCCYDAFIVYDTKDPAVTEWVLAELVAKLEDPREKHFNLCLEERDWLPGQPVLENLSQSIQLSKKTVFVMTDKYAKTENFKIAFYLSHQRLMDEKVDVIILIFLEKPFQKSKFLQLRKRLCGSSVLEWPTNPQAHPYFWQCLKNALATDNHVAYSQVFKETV
How it was run: (§1)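 HEK-Blue reporter cells in HEK-Blue Detection medium (50000 cells/mL) were exposed to test compounds for 24 hours at 37° C, 5% CO2. Agonism was read from supernatant incubated 1 hour at 37° C with QUANTI-Blue, measured as optical density at 650 nm.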

[2] = test system: human PBMC (human peripheral blood mononuclear cells); experiment: PBMC screening assay: induction of TNF-α production; details: read-out: EC50 (μM) TNF-α (hPBMC)
How it was run: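 Human PBMC were rested for 24 h, then treated in duplicate with compound at 2.54 nM to 50 μM for 24 h at 37 °C. Secreted TNF-α in the cleared supernatant was quantified by ELISA, read at OD 450 nm.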

[3] = target: T2, hTLR8 (human Toll-like receptor 8) (Homo sapiens, UniProt Q9NR97); experiment: hTLR8 cell assay (HEK-Blue hTLR8 reporter cells); details: 24 hours, OD 650 nm
T2 construct: host or cells: HEK-Blue hTLR8 (HEK293-derived reporter cells)
T2 sequence (Q9NR97 27-1041): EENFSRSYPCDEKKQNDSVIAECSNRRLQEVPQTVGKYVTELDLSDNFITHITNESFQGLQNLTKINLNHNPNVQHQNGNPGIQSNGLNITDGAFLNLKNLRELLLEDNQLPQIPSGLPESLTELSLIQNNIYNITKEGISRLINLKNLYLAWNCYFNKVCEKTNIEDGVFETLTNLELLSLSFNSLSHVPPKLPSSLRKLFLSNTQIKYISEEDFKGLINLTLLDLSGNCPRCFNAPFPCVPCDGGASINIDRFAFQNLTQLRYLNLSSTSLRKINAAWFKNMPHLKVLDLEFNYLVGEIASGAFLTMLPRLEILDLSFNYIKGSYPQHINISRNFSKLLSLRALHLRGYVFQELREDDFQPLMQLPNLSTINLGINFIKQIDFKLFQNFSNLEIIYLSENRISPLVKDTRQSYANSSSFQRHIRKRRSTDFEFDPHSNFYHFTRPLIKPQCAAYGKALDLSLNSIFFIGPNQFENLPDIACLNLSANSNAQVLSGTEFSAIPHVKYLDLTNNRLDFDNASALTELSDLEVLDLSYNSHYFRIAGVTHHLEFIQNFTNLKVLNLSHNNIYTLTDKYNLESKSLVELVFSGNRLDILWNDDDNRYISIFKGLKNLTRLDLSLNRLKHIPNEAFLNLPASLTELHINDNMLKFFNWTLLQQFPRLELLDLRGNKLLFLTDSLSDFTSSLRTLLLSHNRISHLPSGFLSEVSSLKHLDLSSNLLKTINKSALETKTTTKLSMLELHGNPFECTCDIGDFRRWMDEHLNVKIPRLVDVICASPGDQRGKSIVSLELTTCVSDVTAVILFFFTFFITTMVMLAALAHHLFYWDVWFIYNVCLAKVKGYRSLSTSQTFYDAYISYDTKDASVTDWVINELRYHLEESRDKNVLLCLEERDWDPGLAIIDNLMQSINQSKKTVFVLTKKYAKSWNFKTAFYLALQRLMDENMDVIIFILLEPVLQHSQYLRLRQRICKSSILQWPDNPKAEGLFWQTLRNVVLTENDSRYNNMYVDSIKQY
How it was run: as §1

[4] = human PBMC, 24 hours, TNF-α by ELISA, class symbols

EC50 [1] | EC50 [3] | SMILES | EC50 [2, 4] | EC50 ([2]; Homo sapiens, PBMC, 24 h)
< 1000 nM | < 5000 nM | CC(C)(O)Cn1c(CCCC(F)(F)F)nc2c(N)nc3cc(Cc4cccc(CN)c4)ccc3c21 [Compound 51, 1-(4-amino-7-(3-(aminomethyl)benzyl)-2-(4,4,4-trifluorobutyl)-1H-imidazo[4,5-c]quinolin-1-yl)-2-methylpropan-2-ol] | > 0.64 µM | –
< 1000 nM | < 5000 nM | CCCCc1nc2c(N)nc3cc(Cc4cccc(N5CCNCC5)c4)ccc3c2n1CC(C)(C)O [Compound 63, 1-(4-amino-2-butyl-7-(3-(piperazin-1-yl)benzyl)-1H-imidazo[4,5-c]quinolin-1-yl)-2-methylpropan-2-ol] | < 0.64 µM | –
< 1000 nM | < 5000 nM | CCOCc1nc2c(N)nc3cc(Cc4cc(CN)ccc4F)ccc3c2n1CC(C)(C)O [Compound 148, 1-(4-amino-7-(5-(aminomethyl)-2-fluorobenzyl)-2-(ethoxymethyl)-1H-imidazo[4,5-c]quinolin-1-yl)-2-methylpropan-2-ol] | < 0.64 µM | –
1000 to 10000 nM | < 5000 nM | CCCC(C)c1nc2c(N)nc3cc(Cc4ccccc4)ccc3c2n1CC(C)(C)OCCCN (stereo not drawn) [Compound 32, 1-(2-(3-aminopropoxy)-2-methylpropyl)-7-benzyl-2-(pentan-2-yl)-1H-imidazo[4,5-c]quinolin-4-amine] | > 0.64 µM | –
< 1000 nM | < 5000 nM | CCOCc1nc2c(N)nc3cc(Cc4cccc(N5CCNCC5)c4)ccc3c2n1CC(C)(C)O [Compound 153, 1-(4-amino-2-(ethoxymethyl)-7-(3-(piperazin-1-yl)benzyl)-1H-imidazo[4,5-c]quinolin-1-yl)-2-methylpropan-2-ol] | < 0.64 µM | –
1000 to 10000 nM | < 5000 nM | CCCCc1nc2c(N)nc3cc(Cc4cccc(C(=O)NCCN)c4)ccc3c2n1CC(C)(C)O [Compound 64, 3-((4-amino-2-butyl-1-(2-hydroxy-2-methylpropyl)-1H-imidazo[4,5-c]quinolin-7-yl)methyl)-N-(2-aminoethyl)benzamide] | < 0.64 µM | –
< 1000 nM | < 5000 nM | CCCCc1nc2c(N)nc3cc(Cc4ccc(F)c(CN)c4)ccc3c2n1CC(C)(C)O [Compound 68, 1-(4-amino-7-(3-(aminomethyl)-4-fluorobenzyl)-2-butyl-1H-imidazo[4,5-c]quinolin-1-yl)-2-methylpropan-2-ol] | < 0.64 µM | –
< 1000 nM | < 5000 nM | CCOCc1nc2c(N)nc3cc(Cc4ccc5c(c4)CCNC5)ccc3c2n1CC(C)(C)O [Compound 152, 1-(4-amino-2-(ethoxymethyl)-7-((1,2,3,4-tetrahydroisoquinolin-6-yl)methyl)-1H-imidazo[4,5-c]quinolin-1-yl)-2-methylpropan-2-ol] | < 0.64 µM | –
< 1000 nM | < 5000 nM | CCCCc1nc2c(N)nc3cc(Cc4ccc5c(c4)CCNC5)ccc3c2n1CC(C)(C)O [Compound 59, 1-(4-amino-2-butyl-7-((1,2,3,4-tetrahydroisoquinolin-6-yl)methyl)-1H-imidazo[4,5-c]quinolin-1-yl)-2-methylpropan-2-ol] | < 0.64 µM | –

SMILES | EC50 [1] | EC50 [3] | EC50 [2, 4] | EC50 ([2]; Homo sapiens, PBMC, 24 h)
CCC[C@@H](C)c1nc2c(N)nc3cc(Cc4ccc(CCN)cc4)ccc3c2n1CC(C)(C)O [Compound 9, (R)-1-(4-amino-7-(4-(2-aminoethyl)benzyl)-2-(pentan-2-yl)-1H-imidazo[4,5-c]quinolin-1-yl)-2-methylpropan-2-ol] | > 10000 nM | > 20000 nM | – | < 0.64 µM
